Measured values published in ChEMBL document CHEMBL1201862, “PubChem BioAssay data set” (2004).
Active and inactive are the calls of the source.

What was measured:
[1] = biological target: Peroxisome proliferator-activated receptor gamma (Homo sapiens, UniProt P37231); test: PPARg partial agonists, dose response, cell-based, luminescence, assay provider (AID 504447); assay type: functional
[2] = biological target: T1, Runt-related transcription factor 1/Core-binding factor subunit beta (Homo sapiens, UniProt Q01196+Q13951); test: Confirmation of compounds inhibiting the binding between the RUNX1 Runt domain and CBFb-SMMHC via a fluorescence resonance energy transfer (FRET) assay. [Related pubchem assays (depositor defined):AID1434, AID1438, AID1496, AID1550, AID1645]; assay type: protein assay
[3] = biological target: T1, Runt-related transcription factor 1/Core-binding factor subunit beta; test: Confirmation of compounds inhibiting the binding between the RUNX1 Runt domain and CBFb-SMMHC via a time resolved fluorescence resonance energy transfer (TR-FRET) assay. [Related pubchem assays (depositor defined):AID1434, AID1438, AID1496, AID1560, AID1645]; assay type: protein assay
[4] = biological target: Heat shock protein HSP 90-alpha (Homo sapiens, UniProt P07900); assay type: functional, organism-based
[5] = biological target: Genome polyprotein (dengue virus type 2, UniProt P29990); test: Dengue-2 NS5 methyltransferase inhibitors, primary screen, biochemical, confirmation dose response (AID 588689); assay type: functional
[6] = biological target: G-protein coupled receptor 55 (Homo sapiens, UniProt Q9Y2T6); test: GPR55 agonists via beta-arrestin recruitment, primary screen, imaging, U2OS cells, beta-arrestin-GFP redistribution (AID 1961); assay type: functional
[7] = biological target: T1, Runt-related transcription factor 1/Core-binding factor subunit beta; test: inhibitors of RUNX1 Runt–CBFb-SMMHC binding, primary screen, biochemical, FRET, Cerulean-Runt, Venus-CBFb-SMMHC, uHTS (AID 1434); assay type: protein assay;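 also: partner is the CBFb-SMMHC leukemia fusion protein rather than wild-type CBFb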
[8] = biological target: T2, Heat shock factor protein 1 (Mus musculus, UniProt P38532); test: HSF1 potentiators in luciferase reporter cells, confirmation, cell-based, NIH3T3, luminescence, dose retest (AID 435004); assay type: functional;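 also: stress induced by proteasome inhibitor MG132 added 30 min after compound; luciferase reporter driven by HSF1 response element in NIH3T3 cells; actives raise luminescence as potentiators of the MG132 stress response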
T2 sequence (P38532 whole entry): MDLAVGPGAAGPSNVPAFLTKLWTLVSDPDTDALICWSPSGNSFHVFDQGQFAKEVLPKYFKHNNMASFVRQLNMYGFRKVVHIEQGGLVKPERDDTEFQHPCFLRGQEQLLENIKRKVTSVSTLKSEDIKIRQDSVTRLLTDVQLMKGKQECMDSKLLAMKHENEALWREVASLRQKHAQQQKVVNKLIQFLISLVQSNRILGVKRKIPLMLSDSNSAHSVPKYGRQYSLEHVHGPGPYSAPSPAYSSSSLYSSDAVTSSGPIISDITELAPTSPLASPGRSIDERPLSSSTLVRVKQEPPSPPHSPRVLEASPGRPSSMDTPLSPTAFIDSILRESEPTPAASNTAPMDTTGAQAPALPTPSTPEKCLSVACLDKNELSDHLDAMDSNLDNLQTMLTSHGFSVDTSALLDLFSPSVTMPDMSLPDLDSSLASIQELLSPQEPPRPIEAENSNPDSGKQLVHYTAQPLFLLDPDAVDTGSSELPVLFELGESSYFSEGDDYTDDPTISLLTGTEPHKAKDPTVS

[9] = biological target: T1, Runt-related transcription factor 1/Core-binding factor subunit beta; test: inhibitors of RUNX1 Runt–CBFb-SMMHC binding, biochemical, TR-FRET (AID 1438); assay type: protein assay
[10] = biological target: DNA damage-inducible transcript 3 protein (Mus musculus, UniProt P35639); assay type: functional, Cricetulus griseus
[11] = biological target: Troponin, cardiac muscle (Homo sapiens, UniProt P19429+P45379+P63316); test: Fluorescence-based biochemical high throughput dose response assay for activators of the calcium sensitivity of cardiac Regulated Thin Filaments (RTF). [Related pubchem assays (depositor defined):AID493008, AID493018, AID504382, AID504383]; assay type: protein-complex assay
[12] = biological target: Dual specificity tyrosine-phosphorylation-regulated kinase 1A (Rattus norvegicus, UniProt Q63470); assay type: biochemical, Homo sapiens
[13] = biological target: T3, Ubiquitin-conjugating enzyme E2 N (Homo sapiens, UniProt P61088); assay type: functional;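 also: Dose-response confirmation in a TR-FRET assay detecting UBC13-driven polyubiquitin chain formation, inhibition measured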
T3 sequence (P61088 whole entry): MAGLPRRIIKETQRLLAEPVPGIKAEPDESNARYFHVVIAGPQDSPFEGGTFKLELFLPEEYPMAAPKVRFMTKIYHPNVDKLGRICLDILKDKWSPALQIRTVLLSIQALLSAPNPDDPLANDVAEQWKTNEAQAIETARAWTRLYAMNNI

[14] = biological target: Integrin alpha-4 (Homo sapiens, UniProt P13612); test: VLA-4 integrin allosteric ligands, SAR follow-up, cell-based, LIBS antibody binding, flow cytometry (AID 488791); assay type: functional
[15] = Luminescence Cell-Based Dose Retest to Confirm Inhibitors of Cancer Stem Cells. [Related pubchem assays (depositor defined):AID2717, AID2721]; assay type: functional, Homo sapiens; settings: Homo sapiens
[16] = biological target: T4, Coagulation factor XII (Homo sapiens, UniProt P00748); test: Factor XIIa Dose Response Confirmation from Single Well HTS. [Related pubchem assays (depositor defined):AID701]; assay type: functional
T4 sequence (P00748 whole entry): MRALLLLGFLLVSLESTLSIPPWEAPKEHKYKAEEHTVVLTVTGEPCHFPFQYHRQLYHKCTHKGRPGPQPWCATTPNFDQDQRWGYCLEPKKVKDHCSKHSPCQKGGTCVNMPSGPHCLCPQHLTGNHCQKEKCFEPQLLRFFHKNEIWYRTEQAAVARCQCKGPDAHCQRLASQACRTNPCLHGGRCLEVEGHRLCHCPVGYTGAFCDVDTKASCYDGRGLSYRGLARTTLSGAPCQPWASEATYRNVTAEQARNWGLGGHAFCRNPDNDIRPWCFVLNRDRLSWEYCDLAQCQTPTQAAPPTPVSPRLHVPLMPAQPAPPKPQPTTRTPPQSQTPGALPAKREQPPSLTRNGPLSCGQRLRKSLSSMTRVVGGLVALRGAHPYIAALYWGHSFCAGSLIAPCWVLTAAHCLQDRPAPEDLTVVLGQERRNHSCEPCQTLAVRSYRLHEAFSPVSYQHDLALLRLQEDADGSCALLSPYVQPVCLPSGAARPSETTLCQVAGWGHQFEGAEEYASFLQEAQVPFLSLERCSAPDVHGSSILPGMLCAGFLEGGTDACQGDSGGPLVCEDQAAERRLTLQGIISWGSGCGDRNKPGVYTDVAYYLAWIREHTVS

For `CN1CCN(S(=O)(=O)c2ccc(Sc3nc4ccccc4[nH]3)c3nsnc23)CC1`, which EC50 [1] is on record?
The EC50 was 7.6 µM (active).

With `O=C1C=CC(=O)N1N(c1ccccc1)c1ccccc1` as the molecule, how does the IC50 [2] read?
The IC50 was 10.3 µM (active).

What about the IC50 [3] of the same molecule?
The IC50 was 16.5 µM (active).

What about the AC50 [4] of the same molecule?
Its AC50 is 4.16 µM (active).

What about the IC50 [5] of the same molecule?
The IC50 was 41.6 µM (active).

What about the EC50 [6] of the same molecule?
The EC50 was > 32 µM (inactive).

And the IC50 [7]?
The IC50 was 10.1 µM (active).

What about the EC50 [8] of the same molecule?
Its EC50 is 4.95 µM (active).

And the IC50 [9]?
Its IC50 is 21.4 µM (active).

For `CCOc1cccc(CN2CCN(c3cccc(C(F)(F)F)c3)CC2)c1O`, which “Absolute IC50 (CHOP)” value [10] is on record?
The value was 10 µM.

With `CC1=CC(=C(C#N)C#N)C=C(C)N1Cc1ccc(Cl)cc1` as the molecule, how does the EC50 [11] read?
Its EC50 is > 71.5 µM (inactive).

What does the source list for `COc1cccc(-c2sc3ccccc3c2-c2ccc(OCCN3CCCC3)cc2)c1`?
AC50 [12]: 49.2 µM (active); IC50 [13]: > 20 µM (inactive); EC50 [14]: > 42.9 µM (inactive); AC50 [15]: 2.58 µM (active)

For `CC1=CC(=NOC(=O)c2cccc([N+](=O)[O-])c2)C=C(C)C1=O`, which IC50 [16] is on record?
Its IC50 is 1.94 µM (active).
